Source: PubChem BioAssay (NCI)
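Values below derive from 48-hour exposures of cells grown in 96-well plates, with endpoints linearly interpolated between the two concentrations bracketing the appropriate inhibition level. At the GI50, growth is halved. TGI is the concentration that stops growth completely.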

Test system: A549 NSCLC
Experiment: inhibition of tumour cell growth, NCI panel, 48 h

SMILES	TGI	GI50
CCCCOCCOC1=C(Cl)C(=O)c2c(O)ccc(O)c2C1=O	4.64 µM	
CC1=C(C#N)c2nc3ccccc3n2C(=O)C1(C)CCO (centres undefined)	> 100 µM	
COc1ccc(C(=O)NCCN(C)C)c2nc3ccccc3cc12	2.4 µM	
Cc1ccc(/C=C2/N=C(N/N=C\C(O)C(O)C(O)C(O)CO)NC2=O)cc1 (centres undefined)	> 100 µM	
CCN(C(=O)N[C@@H](C)C(=O)N[C@@H](Cc1ccccc1)C(=O)OC)c1ccccc1	> 100 µM	
COc1cccc2c1OC(c1cccc3ccccc13)C([N+](=O)[O-])=C2 (centres undefined)	3.75 µM	
O=C(CCSC1=NCCCN1)c1ccc(F)cc1	40.3 µM	
Cn1c2ccccc2c2c(=S)c3ccccc3ccc21	> 100 µM	
CCOc1c(OC)cc(-c2nc3n(n2)C(=O)C(CC)S3)cc1OC (centres undefined)	> 10 µM	
CC1OC(O[C@H]2C3C=CO[C@@H](OC4OC(CO)C(O)C(O)C4O)C3[C@@]3(COC(=O)/C=C/c4ccccc4)O[C@@H]23)C(O)C(O)C1O (some centres undefined)	> 100 µM	
Cc1nc2ccccc2c(-n2cccn2)c1CCn1cccn1	> 100 µM	
COc1cc2c(cc1OCCCCCN1CCN(c3ncnc4ccccc34)CC1)N=CC1CCCN1C2=O (centres undefined)	25.8 µM	0.0307 µM
C/C1=C\[C@H](C)C[C@H](C)OC(=O)[C@H](C)NC(=O)[C@@H](Cc2ccc(O)c(Br)c2)N(C)C(=O)[C@H](C)NC(=O)[C@@H](C)C1	> 25 µM	
COc1cc2c(cc1OCCCN1C(=O)c3cccc4cccc(c34)C1=O)N=C[C@@H]1CCCN1C2=O	> 100 µM	
COC(=O)c1ccccc1CC1Cc2cccc(C)c2C1=O (centres undefined)	> 100 µM	
COc1ccc(/C=N/NC(=O)c2ccc(O)c(CN(C)C)c2)cc1	> 100 µM	

Test system: ACHN renal
Experiment: inhibition of tumour cell growth, NCI panel, 48 h

SMILES	TGI	GI50
CCCCOCCOC1=C(Cl)C(=O)c2c(O)ccc(O)c2C1=O	1.1 µM	
CC1=C(C#N)c2nc3ccccc3n2C(=O)C1(C)CCO (centres undefined)	> 100 µM	
COc1ccc(C(=O)NCCN(C)C)c2nc3ccccc3cc12	2.5 µM	
Cc1ccc(/C=C2/N=C(N/N=C\C(O)C(O)C(O)C(O)CO)NC2=O)cc1 (centres undefined)	> 100 µM	
CCN(C(=O)N[C@@H](C)C(=O)N[C@@H](Cc1ccccc1)C(=O)OC)c1ccccc1	> 100 µM	
COc1cccc2c1OC(c1cccc3ccccc13)C([N+](=O)[O-])=C2 (centres undefined)	3.02 µM	
O=C(CCSC1=NCCCN1)c1ccc(F)cc1	31.1 µM	
Cn1c2ccccc2c2c(=S)c3ccccc3ccc21	> 100 µM	
CCOc1c(OC)cc(-c2nc3n(n2)C(=O)C(CC)S3)cc1OC (centres undefined)	> 10 µM	
CC1OC(O[C@H]2C3C=CO[C@@H](OC4OC(CO)C(O)C(O)C4O)C3[C@@]3(COC(=O)/C=C/c4ccccc4)O[C@@H]23)C(O)C(O)C1O (some centres undefined)	> 100 µM	
Cc1nc2ccccc2c(-n2cccn2)c1CCn1cccn1	> 100 µM	
COc1cc2c(cc1OCCCCCN1CCN(c3ncnc4ccccc34)CC1)N=CC1CCCN1C2=O (centres undefined)	4.15 µM	0.0523 µM
C/C1=C\[C@H](C)C[C@H](C)OC(=O)[C@H](C)NC(=O)[C@@H](Cc2ccc(O)c(Br)c2)N(C)C(=O)[C@H](C)NC(=O)[C@@H](C)C1	1.04 µM	
COc1cc2c(cc1OCCCN1C(=O)c3cccc4cccc(c34)C1=O)N=C[C@@H]1CCCN1C2=O	> 63.4 µM	
COC(=O)c1ccccc1CC1Cc2cccc(C)c2C1=O (centres undefined)	> 100 µM	
COc1ccc(/C=N/NC(=O)c2ccc(O)c(CN(C)C)c2)cc1	> 100 µM	

Test system: CCRF-CEM leukemia
Experiment: inhibition of tumour cell growth, NCI panel, 48 h

SMILES	TGI	GI50
CCCCOCCOC1=C(Cl)C(=O)c2c(O)ccc(O)c2C1=O	0.242 µM	
CC1=C(C#N)c2nc3ccccc3n2C(=O)C1(C)CCO (centres undefined)	> 100 µM	
COc1ccc(C(=O)NCCN(C)C)c2nc3ccccc3cc12	11.4 µM	
Cc1ccc(/C=C2/N=C(N/N=C\C(O)C(O)C(O)C(O)CO)NC2=O)cc1 (centres undefined)	> 100 µM	
CCN(C(=O)N[C@@H](C)C(=O)N[C@@H](Cc1ccccc1)C(=O)OC)c1ccccc1	> 100 µM	
COc1cccc2c1OC(c1cccc3ccccc13)C([N+](=O)[O-])=C2 (centres undefined)	2.02 µM	
O=C(CCSC1=NCCCN1)c1ccc(F)cc1	11.6 µM	
Cn1c2ccccc2c2c(=S)c3ccccc3ccc21	> 100 µM	
CCOc1c(OC)cc(-c2nc3n(n2)C(=O)C(CC)S3)cc1OC (centres undefined)	> 10 µM	
CC1OC(O[C@H]2C3C=CO[C@@H](OC4OC(CO)C(O)C(O)C4O)C3[C@@]3(COC(=O)/C=C/c4ccccc4)O[C@@H]23)C(O)C(O)C1O (some centres undefined)	> 100 µM	
Cc1nc2ccccc2c(-n2cccn2)c1CCn1cccn1	> 100 µM	
COc1cc2c(cc1OCCCCCN1CCN(c3ncnc4ccccc34)CC1)N=CC1CCCN1C2=O (centres undefined)	0.0727 µM	0.0133 µM
C/C1=C\[C@H](C)C[C@H](C)OC(=O)[C@H](C)NC(=O)[C@@H](Cc2ccc(O)c(Br)c2)N(C)C(=O)[C@H](C)NC(=O)[C@@H](C)C1	> 10.3 µM	
COc1cc2c(cc1OCCCN1C(=O)c3cccc4cccc(c34)C1=O)N=C[C@@H]1CCCN1C2=O	22.2 µM	
COC(=O)c1ccccc1CC1Cc2cccc(C)c2C1=O (centres undefined)	> 100 µM	
COc1ccc(/C=N/NC(=O)c2ccc(O)c(CN(C)C)c2)cc1	> 100 µM	

Test system: COLO 205 colon
Experiment: inhibition of tumour cell growth, NCI panel, 48 h

SMILES	TGI	GI50
CCCCOCCOC1=C(Cl)C(=O)c2c(O)ccc(O)c2C1=O	0.397 µM	
CC1=C(C#N)c2nc3ccccc3n2C(=O)C1(C)CCO (centres undefined)	> 100 µM	
COc1ccc(C(=O)NCCN(C)C)c2nc3ccccc3cc12	2.57 µM	
Cc1ccc(/C=C2/N=C(N/N=C\C(O)C(O)C(O)C(O)CO)NC2=O)cc1 (centres undefined)	> 100 µM	
CCN(C(=O)N[C@@H](C)C(=O)N[C@@H](Cc1ccccc1)C(=O)OC)c1ccccc1	> 100 µM	
COc1cccc2c1OC(c1cccc3ccccc13)C([N+](=O)[O-])=C2 (centres undefined)	5.72 µM	
O=C(CCSC1=NCCCN1)c1ccc(F)cc1	11.8 µM	
Cn1c2ccccc2c2c(=S)c3ccccc3ccc21	> 100 µM	
CCOc1c(OC)cc(-c2nc3n(n2)C(=O)C(CC)S3)cc1OC (centres undefined)	> 10 µM	
CC1OC(O[C@H]2C3C=CO[C@@H](OC4OC(CO)C(O)C(O)C4O)C3[C@@]3(COC(=O)/C=C/c4ccccc4)O[C@@H]23)C(O)C(O)C1O (some centres undefined)	> 100 µM	
Cc1nc2ccccc2c(-n2cccn2)c1CCn1cccn1	> 100 µM	
COc1cc2c(cc1OCCCCCN1CCN(c3ncnc4ccccc34)CC1)N=CC1CCCN1C2=O (centres undefined)	0.0408 µM	0.0187 µM
C/C1=C\[C@H](C)C[C@H](C)OC(=O)[C@H](C)NC(=O)[C@@H](Cc2ccc(O)c(Br)c2)N(C)C(=O)[C@H](C)NC(=O)[C@@H](C)C1	> 25 µM	
COc1cc2c(cc1OCCCN1C(=O)c3cccc4cccc(c34)C1=O)N=C[C@@H]1CCCN1C2=O	40.6 µM	
COC(=O)c1ccccc1CC1Cc2cccc(C)c2C1=O (centres undefined)	39.3 µM	
COc1ccc(/C=N/NC(=O)c2ccc(O)c(CN(C)C)c2)cc1	> 100 µM	

Test system: EKVX NSCLC
Experiment: inhibition of tumour cell growth, NCI panel, 48 h

SMILES	TGI	GI50
CCCCOCCOC1=C(Cl)C(=O)c2c(O)ccc(O)c2C1=O	7.59 µM	
CC1=C(C#N)c2nc3ccccc3n2C(=O)C1(C)CCO (centres undefined)	> 100 µM	
COc1ccc(C(=O)NCCN(C)C)c2nc3ccccc3cc12	6.68 µM	
Cc1ccc(/C=C2/N=C(N/N=C\C(O)C(O)C(O)C(O)CO)NC2=O)cc1 (centres undefined)	> 100 µM	
CCN(C(=O)N[C@@H](C)C(=O)N[C@@H](Cc1ccccc1)C(=O)OC)c1ccccc1	> 100 µM	
COc1cccc2c1OC(c1cccc3ccccc13)C([N+](=O)[O-])=C2 (centres undefined)	10.5 µM	
O=C(CCSC1=NCCCN1)c1ccc(F)cc1	27.5 µM	
Cn1c2ccccc2c2c(=S)c3ccccc3ccc21	> 100 µM	
CCOc1c(OC)cc(-c2nc3n(n2)C(=O)C(CC)S3)cc1OC (centres undefined)	> 10 µM	
CC1OC(O[C@H]2C3C=CO[C@@H](OC4OC(CO)C(O)C(O)C4O)C3[C@@]3(COC(=O)/C=C/c4ccccc4)O[C@@H]23)C(O)C(O)C1O (some centres undefined)	> 100 µM	
Cc1nc2ccccc2c(-n2cccn2)c1CCn1cccn1	> 100 µM	
COc1cc2c(cc1OCCCCCN1CCN(c3ncnc4ccccc34)CC1)N=CC1CCCN1C2=O (centres undefined)	0.724 µM	0.114 µM
C/C1=C\[C@H](C)C[C@H](C)OC(=O)[C@H](C)NC(=O)[C@@H](Cc2ccc(O)c(Br)c2)N(C)C(=O)[C@H](C)NC(=O)[C@@H](C)C1	> 4.7 µM	
COc1cc2c(cc1OCCCN1C(=O)c3cccc4cccc(c34)C1=O)N=C[C@@H]1CCCN1C2=O	> 100 µM	
COC(=O)c1ccccc1CC1Cc2cccc(C)c2C1=O (centres undefined)	41.9 µM	
